Reference: patent US20250154219A1, “PEPTIDE ANALOGS” (Adepthera LLC, priority 2017, published 2025)

How the values were obtained:
[1] = molecular target: CLR/RAMP1 receptor (Homo sapiens, UniProt O60894+Q16602); test: CLR/RAMP1 cAMP receptor-activation assay (agonist mode); type: cell-based; details: for CLR/RAMP1 Max Activity % of positive control: agonist mode, positive control β-CGRP;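 on all read-outs here: Dose–response over 10 threefold dilutions from 1.0 µM, run in duplicate, luminescent cAMP detection (RLU), activity scaled between vehicle control (0%) and maximal control (100%)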
CLR/RAMP1 receptor, sequence (Q16602 23-461): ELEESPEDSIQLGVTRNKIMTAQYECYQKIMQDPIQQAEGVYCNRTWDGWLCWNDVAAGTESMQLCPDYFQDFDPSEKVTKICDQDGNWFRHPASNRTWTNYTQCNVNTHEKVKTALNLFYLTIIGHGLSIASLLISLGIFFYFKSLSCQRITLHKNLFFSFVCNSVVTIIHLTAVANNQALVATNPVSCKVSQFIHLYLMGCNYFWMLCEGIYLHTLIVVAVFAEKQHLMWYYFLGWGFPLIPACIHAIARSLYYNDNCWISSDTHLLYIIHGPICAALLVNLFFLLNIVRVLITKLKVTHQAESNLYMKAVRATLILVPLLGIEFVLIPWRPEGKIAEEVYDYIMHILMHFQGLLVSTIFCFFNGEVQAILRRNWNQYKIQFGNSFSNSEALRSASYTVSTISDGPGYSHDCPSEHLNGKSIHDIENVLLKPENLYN
CLR/RAMP1 receptor, sequence (O60894 27-148): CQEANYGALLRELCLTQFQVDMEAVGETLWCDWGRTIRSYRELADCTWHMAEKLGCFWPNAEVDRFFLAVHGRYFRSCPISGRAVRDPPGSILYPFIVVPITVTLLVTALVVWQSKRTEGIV
Protocol: (§1) Using a receptor activation assay, the dose-dependent stimulatory response of peptide agonists on a CLR/RAMP1 receptor, a CLR/RAMP2, or a CLR/RAMP3 receptor complex was determined. A cell line carrying the recombinant CLR/RAMP1, CLR/RAMP2, or a CLR/RAMP3 receptor was employed in the assay. Peptide agonist activities were tested, in duplicate, at 10 different concentrations, starting with 1.0 μM and serially diluted 3-fold, in DMSO. […] The CLR/RAMP1 CAMP, CLR/RAMP2 arrestin, and CLR/RAMP3 CAMP assays (DiscoveRx, Fremont, Calif.) were used.
(§2) The pharmacology of superagonistic activity of synthetic analogs was studied in cells that stably express CLR/RAMP1 (1321N1 cells), CLR/RAMP2 (CHO-K1 cells), or CLR/RAMP3 (CHO-K1 cells) receptors.
For the analysis of Gs-coupled CAMP production, cAMP Hunter cell lines were expanded from freezer stocks, and cells were seeded in a total volume of 20 μL into white walled, 384-well microplates and incubated at 37 C for the appropriate time prior to testing. The CAMP modulation was determined using the DiscoverX HitHunter CAMP XS+ assay. For agonistic activity determination, cells were incubated with sample to induce response. Media was aspirated from cells and replaced with 15 μL 2:1 HBSS/10 mM Hepes: CAMP XS+Ab reagent. […] For Gs-coupled agonistic assays, percentage activity is calculated using the following formula: % Activity=100%×(mean RLU of test sample−mean RLU of vehicle control)/(mean RLU of MAX control−mean RLU of vehicle control).

[2] = molecular target: CLR/RAMP2 receptor (Homo sapiens, UniProt O60895+Q16602); test: CLR/RAMP2 arrestin receptor-activation assay (agonist mode); type: cell-based; details: agonist mode; positive control ADM;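 further: agonist dose-response in recombinant cell lines stably expressing each receptor complex, duplicate wells over 10 threefold dilutions from a top concentration of 1.0 µM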
CLR/RAMP2 receptor, sequence (Q16602 23-461): as the sequence (Q16602 23-461) above
CLR/RAMP2 receptor, sequence (O60895 43-175): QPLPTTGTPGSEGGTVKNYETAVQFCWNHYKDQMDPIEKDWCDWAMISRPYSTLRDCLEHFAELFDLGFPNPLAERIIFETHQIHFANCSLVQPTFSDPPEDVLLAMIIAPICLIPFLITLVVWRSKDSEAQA
Protocol: as §1, §2
For the Arrestin assays, PathHunter cell lines (Discoverx Inc.) were expanded from freezer stocks, and seeded in a total volume of 20 μL into white walled, 384-well microplates and incubated at 37 C for the appropriate time prior to testing. For agonist determination, cells were incubated with sample to induce response. […] The microplates were read following signal generation with a PerkinElmer Envision™ instrument for chemiluminescent signal detection.
The compound activity was analyzed using a CBIS data analysis suite (ChemInnovation, CA). For agonist mode assays, percentage activity was calculated using the following formula:
% Activity=100%×(mean RLU of test sample−mean RLU of vehicle control)/(mean MAX control ligand−mean RLU of vehicle control).

Row | Compound | CLR/RAMP1 Max Activity % of positive control [1] | agonistic potency for CLR/RAMP1 and/or CLR/RAMP2 receptors, in words ([1]; CLR/RAMP1 and/or CLR/RAMP2) | CLR/RAMP2 Max Activity % of positive control [2]
1 | CSCC[C@H](NC(=O)CNC(=O)CNC(=O)[C@H](CO)NC(=O)[C@H](CCCNC(=N)N)NC(=O)[C@H](CO)NC(=O)[C@H](CC(C)C)NC(=O)[C@H](CC(C)C)NC(=O)CNC(=O)[C@H](C)NC(=O)[C@H](CC(C)C)NC(=O)[C@H](CCCNC(=N)N)NC(=O)[C@H](Cc1c[nH]cn1)NC(=O)[C@@H](NC(=O)[C@@H](NC(=O)[C@@H]1CSSC[C@H](NC(=O)[C@H](C)N)C(=O)N[C@@H](CC(N)=O)C(=O)N[C@@H]([C@@H](C)O)C(=O)N[C@@H](C)C(=O)N[C@@H]([C@@H](C)O)C(=O)N1)C(C)C)[C@@H](C)O)C(=O)N[C@H](C(=O)N[C@@H](CCCCN)C(=O)N[C@@H](CO)C(=O)N[C@@H](CC(N)=O)C(=O)N[C@@H](Cc1ccccc1)C(=O)N[C@H](C(=O)N1CCC[C@H]1C(=O)N[C@H](C(=O)N[C@@H](CC(N)=O)C(=O)N[C@H](C(=O)NCC(=O)N[C@@H](CO)C(=O)N[C@@H](CCCCN)C(=O)N[C@@H](C)C(=O)N[C@@H](Cc1ccccc1)C(N)=O)C(C)C)[C@@H](C)O)C(C)C)C(C)C [SEQ ID NO: 143, reference compound] | 103 % of positive control | – | –
2 | Ace-FGCRFGTCTVQKLAHQIYQFTDKDKDNVAPRSKISPQGY-NH2 [SEQ ID NO: 53, reference compound] | 69 % of positive control | low potency ligands | 102 % of positive control
3 | Ace-PEG3-K(Hexadecanoyl-PEG3-isoGlu)GCRFGTCTVQKLAHQIYQFTDKDKDNVAPRSKISPQGY-NH2 [SEQ ID NO: 154] | 83 % of positive control | – | 112 % of positive control
4 | Ace-PEG3-K(Hexadecanoyl-isoGlu)GCRFGTCTVQKLAHQIYQFTDKDKDNVAPRSKISPQGY-NH2 [SEQ ID NO: 151] | 85 % of positive control | – | 134 % of positive control
5 | Ace-PEG3-K(Hexadecanoyl-isoGlu-PEG3)GCRFGTCTVQKLAHQIYQFTDKDKDNVAPRSKISPQGY-NH2 [SEQ ID NO: 152] | 80 % of positive control | – | 132 % of positive control
6 | Ace-PEG3-K(Hexadecanoyl-isoGlu-PEG3-PEG3)GCRFGTCTVQKLAHQIYQFTDKDKDNVAPRSKISPQGY-NH2 [SEQ ID NO: 153] | 78 % of positive control | – | 108 % of positive control
7 | Ace-PEG3-K([19-carboxy-nonadecanoyl]-PEG3-isoGlu)GCRFGTCTVQKLAHQIYQFTDKDKDNVAPRSKISPQGY-NH2 [SEQ ID NO: 156] | 88 % of positive control | – | 91 % of positive control
8 | Ace-PEG3-K([19-carboxy-nonadecanoyl]-isoGlu)GCRFGTCTVQKLAHQIYQFTDKDKDNVAPRSKISPQGY-NH2 [SEQ ID NO: 155] | 81 % of positive control | – | 95 % of positive control
9 | Ace-PEG3-K([19-carboxy-nonadecanoyl]-isoGlu-PEG3)GCRFGTCTVQKLAHQIYQFTDKDVAPRSKISPQGY-NH2 [SEQ ID NO: 159] | 90 % of positive control | – | 60 % of positive control
10 | Human β-CGRP [Wild type CGRP-β positive, reference compound] | 100 % of positive control | – | –
11 | miniPEG-K(PAL)GCRFGTCTVQKLAHQIYQFTDKGRQDSAPVDPSSPHSY-NH2 [SEQ ID NO: 68] | – | – | 70 % of positive control
